Here are results for seven molecules from ChEMBL document CHEMBL3217590, “Discovery of a new class of dithiocarbamates and rhodanine scaffolds as potent antifungal agents: synthesis, biology and molecular docking” (Medchemcomm, 2012).

Series [1] deals with Candida albicans. As to the kind of experiment: Anticandidal activity against Candida albicans MTCC183 after 24 to 48 hrs by broth microdilution technique. It counts as functional. (In general: In broth dilution the organism is exposed to a series of concentrations in liquid medium.)
In another series the test system is Candida parapsilosis. As to the kind of experiment: Antifungal activity against Candida parapsilosis ATCC22019 after 24 to 48 hrs by broth microdilution technique. Type of series: functional. The conditions noted are these: Lodderomyces parapsilosis.
The test system of series [2] is Candida albicans. Kind of series: Anticandidal activity against amphotericin-B resistant Candida albicans after 24 to 48 hrs by broth microdilution technique. Type of series: functional.
Series [3] relates to Candida albicans. As to the kind of experiment: Anticandidal activity against Candida albicans isolated from patient after 24 to 48 hrs by broth microdilution technique. Type of series: functional.
Series [4] deals with L929. As to the kind of experiment: Cytotoxicity against mouse L929 cells assessed as decline in cell survival at 12.5 to 50 ug/ml after 24 hrs by spectrophotometric analysis. It counts as cell-based. The conditions noted are these: l929, 24 h.
A further series relates to Aspergillus fumigatus. As to the kind of experiment: Antifungal activity against Aspergillus fumigatus after 72 to 96 hrs by broth microdilution technique. Type of series: functional.
In series [5] the test system is Candida albicans. As to the kind of experiment: Ratio of fluconazole MIC to compound MIC against amphotericin-B resistant Candida albicans after 24 to 48 hrs by broth microdilution technique. Type of series: functional.
In series [6] the test system is L929. As to the kind of experiment: Cytotoxicity against mouse L929 cells assessed as morphological changes up to 3.12 ug/ml after 24 hrs by giemsa staining based phase contrast microscopy. The conditions noted are these: l929, 24 h. It counts as cell-based.
In series [7] the test system is Candida albicans. As to the kind of experiment: Anticandidal activity against Candida albicans ATCC10231 after 24 to 48 hrs by broth microdilution technique. It counts as functional.
The test system of series [8] is Candida albicans. As to the kind of experiment: Anticandidal activity against Candida albicans ATCC-MYA 2950 after 24 to 48 hrs by broth microdilution technique. Type of series: functional.
Series [9] concerns Candida albicans. Kind of series: Anticandidal activity against Candida albicans ATCC14053 after 24 to 48 hrs by broth microdilution technique. It counts as functional.
In series [10] the test system is Candida albicans. Kind of series: Antifungal activity against Candida albicans after 24 to 48 hrs by broth microdilution technique. It counts as functional.
The subject of series [11] is Trichophyton mentagrophytes. As to the kind of experiment: Antifungal activity against Trichophyton mentagrophytes after 72 to 96 hrs by broth microdilution technique. Type of series: functional.
The subject of series [12] is Candida albicans. Kind of series: Anticandidal activity against Candida albicans ATCC750 after 24 to 48 hrs by broth microdilution technique. It counts as functional.
Series [13] deals with Candida albicans. Kind of series: Anticandidal activity against Candida albicans CDRI after 24 to 48 hrs by broth microdilution technique. It counts as functional.
The subject of series [14] is Sporothrix schenckii. As to the kind of experiment: Antifungal activity against Sporothrix schenckii after 72 to 96 hrs by broth microdilution technique. Type of series: functional.
The test system of a further series is Cryptococcus neoformans. Kind of series: Antifungal activity against Cryptococcus neoformans after 24 to 48 hrs by broth microdilution technique. It counts as functional.
The subject of series [15] is Sporothrix schenckii. Kind of series: Ratio of fluconazole MIC to compound MIC against Sporothrix schenckii after 72 to 96 hrs by broth microdilution technique. Type of series: functional.
Series [16] relates to Sporothrix schenckii. As to the kind of experiment: Ratio of clotrimazole MIC to compound MIC against Sporothrix schenckii after 72 to 96 hrs by broth microdilution technique. Type of series: functional.

Molecules are shown by their SMILES. Values after ≈ are worked out from the molar mass of the structure shown.

As to `O=C1CSC(=S)N1Cc1ccncc1`, the MIC with Candida albicans [1] stood at 0.78 µg/mL (≈ 3.48 µM); with Candida parapsilosis, 6.25 µg/mL (≈ 27.9 µM); in the series on Candida albicans [2], 3.12 µg/mL (≈ 13.9 µM); in the series with Candida albicans [3], 6.25 µg/mL (≈ 27.9 µM); against Aspergillus fumigatus, 12.5 µg/mL (≈ 55.7 µM); in the series on Candida albicans [7] it was 6.25 µg/mL (≈ 27.9 µM). Also, the MIC in the series with Candida albicans [8] came out at 6.25 µg/mL (≈ 27.9 µM); in the series with Candida albicans [9], 1.56 µg/mL (≈ 6.95 µM); in the series with Candida albicans [10], 1.56 µg/mL (≈ 6.95 µM); in [11], 3.12 µg/mL (≈ 13.9 µM); in the series on Candida albicans [12] it was 6.25 µg/mL (≈ 27.9 µM); with Candida albicans [13], 6.25 µg/mL (≈ 27.9 µM). Further, the results for the MIC against Sporothrix schenckii [14] and against Cryptococcus neoformans were 1.56 µg/mL (≈ 6.95 µM) and 6.25 µg/mL (≈ 27.9 µM), respectively. Also, the values for the Activity entry with L929 [4] and in the series with L929 [6] were “Toxic” and “Non-toxic”, respectively. Also, the Ratio with Candida albicans [5] is reported as 2.

Regarding `C=CCSC(=S)NCc1ccncc1`, the MIC against Candida albicans [1] was 0.78 µg/mL (≈ 3.48 µM); in the series on Candida parapsilosis, 1.56 µg/mL (≈ 6.95 µM); in the series on Candida albicans [2], 6.25 µg/mL (≈ 27.9 µM); against Candida albicans [3] it was 1.56 µg/mL (≈ 6.95 µM); against Aspergillus fumigatus, 25 µg/mL (≈ 111 µM); in the series with Candida albicans [7], 1.56 µg/mL (≈ 6.95 µM). The minimum inhibitory concentration (MIC) with Candida albicans [8] is 1.56 µg/mL (≈ 6.95 µM); against Candida albicans [9], 0.78 µg/mL (≈ 3.48 µM); against Candida albicans [10], 1.56 µg/mL (≈ 6.95 µM); in series [11], 3.12 µg/mL (≈ 13.9 µM); in the series with Candida albicans [12], 3.12 µg/mL (≈ 13.9 µM); in the series on Candida albicans [13] it was 1.56 µg/mL (≈ 6.95 µM). Moreover, the MIC in the series on Sporothrix schenckii [14] came out at 0.39 µg/mL (≈ 1.74 µM); in the series on Cryptococcus neoformans, 3.12 µg/mL (≈ 13.9 µM). In addition, the Activity entry in the series with L929 [4] was “Toxic”; in the series with L929 [6], “Non-toxic”. Also, the Ratio with Candida albicans [5] is reported as 1; with Sporothrix schenckii [15], 12; with Sporothrix schenckii [16], 12.

As to `O=C1/C(=C/c2ccncc2)SC(=S)N1Cc1ccncc1`, the MIC is 0.78 µg/mL (≈ 2.49 µM) against Candida albicans [1]; 1.56 µg/mL (≈ 4.98 µM) in the series with Candida parapsilosis; 3.12 µg/mL (≈ 9.96 µM) in the series on Candida albicans [2]; 3.12 µg/mL (≈ 9.96 µM) with Candida albicans [3]; 25 µg/mL (≈ 79.8 µM) against Aspergillus fumigatus; 1.56 µg/mL (≈ 4.98 µM) against Candida albicans [7]. Moreover, the minimum inhibitory concentration (MIC) with Candida albicans [8] worked out at 1.56 µg/mL (≈ 4.98 µM); in the series on Candida albicans [9], 6.25 µg/mL (≈ 19.9 µM); with Candida albicans [10] it was 1.56 µg/mL (≈ 4.98 µM); in series [11] it was 3.12 µg/mL (≈ 9.96 µM); against Candida albicans [12], 6.25 µg/mL (≈ 19.9 µM); against Candida albicans [13] it was 3.12 µg/mL (≈ 9.96 µM). The MIC against Sporothrix schenckii [14] came out at 3.12 µg/mL (≈ 9.96 µM); against Cryptococcus neoformans, 1.56 µg/mL (≈ 4.98 µM). The values for the Activity result in the series with L929 [4] and with L929 [6] were “Toxic” and “Non-toxic”, respectively. In the series with Candida albicans [5], the Ratio is on record as 2.

Regarding `CCSC(=S)NCc1ccncc1`, the MIC was determined as 1.56 µg/mL (≈ 7.35 µM) against Candida albicans [1]; 3.12 µg/mL (≈ 14.7 µM) in the series on Candida parapsilosis; 1.56 µg/mL (≈ 7.35 µM) against Candida albicans [2]; 12.5 µg/mL (≈ 58.9 µM) in the series on Candida albicans [3]; 50 µg/mL (≈ 235 µM) against Aspergillus fumigatus; 6.25 µg/mL (≈ 29.4 µM) against Candida albicans [7]. Besides, the MIC against Candida albicans [8] is 12.5 µg/mL (≈ 58.9 µM); in the series with Candida albicans [9], 3.12 µg/mL (≈ 14.7 µM); in the series with Candida albicans [10], 3.12 µg/mL (≈ 14.7 µM); in [11] it was 3.12 µg/mL (≈ 14.7 µM); against Candida albicans [12], 12.5 µg/mL (≈ 58.9 µM); in the series with Candida albicans [13], 6.25 µg/mL (≈ 29.4 µM). For the same molecule, the figures for the MIC against Sporothrix schenckii [14] and against Cryptococcus neoformans were 1.56 µg/mL (≈ 7.35 µM) and 3.12 µg/mL (≈ 14.7 µM), respectively. Besides, the figures for the Activity entry in the series with L929 [4] and in the series on L929 [6] were “Toxic” and “Non-toxic”, respectively. Moreover, the Ratio in the series on Candida albicans [5] is on record as 5.

In the case of `CCCSC(=S)NCc1ccncc1`, the MIC in the series on Candida albicans [1] was found to be 1.56 µg/mL (≈ 6.89 µM); in the series on Candida parapsilosis, 12.5 µg/mL (≈ 55.2 µM); in the series with Candida albicans [2], 3.12 µg/mL (≈ 13.8 µM); with Candida albicans [3], 12.5 µg/mL (≈ 55.2 µM); in the series with Aspergillus fumigatus, 50 µg/mL (≈ 221 µM); in the series with Candida albicans [7] it was 6.25 µg/mL (≈ 27.6 µM). The MIC with Candida albicans [8] was found to be 12.5 µg/mL (≈ 55.2 µM); in the series with Candida albicans [9], 6.25 µg/mL (≈ 27.6 µM); in the series on Candida albicans [10], 6.25 µg/mL (≈ 27.6 µM); in [11], 3.12 µg/mL (≈ 13.8 µM); in the series on Candida albicans [12] it was 12.5 µg/mL (≈ 55.2 µM); in the series with Candida albicans [13] it was 6.25 µg/mL (≈ 27.6 µM). In addition, the figures for the MIC with Sporothrix schenckii [14] and against Cryptococcus neoformans were 0.39 µg/mL (≈ 1.72 µM) and 12.5 µg/mL (≈ 55.2 µM), respectively. Also, the Activity result with L929 [4] is “Toxic”; in the series on L929 [6], “Non-toxic”. The values for the Ratio in the series with Candida albicans [5], in the series with Sporothrix schenckii [15] and in the series with Sporothrix schenckii [16] were 2, 12 and 12, respectively.

Turning to `O=C1/C(=C/c2ccc(F)cc2)SC(=S)N1Cc1ccncc1`, the MIC was 25 µg/mL (≈ 75.7 µM) in the series with Candida parapsilosis; more than 50 µg/mL against Aspergillus fumigatus; 12.5 µg/mL (≈ 37.8 µM) against Candida albicans [10]; 3.12 µg/mL (≈ 9.44 µM) in series [11]; 0.39 µg/mL (≈ 1.18 µM) in the series on Sporothrix schenckii [14]; 25 µg/mL (≈ 75.7 µM) against Cryptococcus neoformans. Moreover, the values for the Activity result in the series on L929 [4] and in the series with L929 [6] were “Toxic” and “Non-toxic”, respectively. In addition, the Ratio in the series on Sporothrix schenckii [15] and with Sporothrix schenckii [16] was 12 in each case.

With `CCCCSC(=S)NCc1ccncc1`, the MIC with Candida albicans [1] was found to be 1.56 µg/mL (≈ 6.49 µM); with Candida parapsilosis it was 6.25 µg/mL (≈ 26 µM); in the series with Candida albicans [2], 1.56 µg/mL (≈ 6.49 µM); with Candida albicans [3] it was 12.5 µg/mL (≈ 52 µM); against Aspergillus fumigatus it was 50 µg/mL (≈ 208 µM); with Candida albicans [7] it was 6.25 µg/mL (≈ 26 µM). Moreover, the MIC against Candida albicans [8] stood at 12.5 µg/mL (≈ 52 µM); in the series with Candida albicans [9], 3.12 µg/mL (≈ 13 µM); in the series on Candida albicans [10], 3.12 µg/mL (≈ 13 µM); in [11], 3.12 µg/mL (≈ 13 µM); in the series with Candida albicans [12], 12.5 µg/mL (≈ 52 µM); in the series on Candida albicans [13] it was 12.5 µg/mL (≈ 52 µM). Further, the MIC against Sporothrix schenckii [14] and in the series on Cryptococcus neoformans was 3.12 µg/mL (≈ 13 µM) in each case. Besides, the Activity entry was “Toxic” in the series on L929 [4] and “Non-toxic” in the series with L929 [6]. Also, the Ratio in the series on Candida albicans [5] stood at 5.

A word on the MIC: it is the least concentration at which growth counts as inhibited. Low readings indicate inhibition by little substance, high ones a need for much substance.
